How the values were obtained:
[1] = Chemical stability comparison test (one month preservation, purity by HPLC); type: physicochemical
Procedure: The sample after preservation was measured for chemical purity by HPLC. The HPLC conditions are shown below. • apparatus: SHIMADZU Corporation • column: Inertsil ODS-3V (GL Sciences Inc.) inner diameter 4.6 mm and length 150 mm • column oven: 40° C. • detection wavelength: 234 nm • measurement operation: a sample (about 1 mg) was measured in a vial container for HPLC, dissolved in a mixture (1 mL) of water/acetonitrile=1:1, and analyzed under the following conditions. • eluent composition: SOLUTION A 0.1% trifluoroacetic acid/water • SOLUTION B 0.1% trifluoroacetic acid/acetonitrile • gradient: SOLUTION B concentration: 5→100% (60 min) • mobile phase flow rate: 1.0 mL/min • injection volume: 5 μL
An increase rate of related substances after one month preservation was determined from the peak area in the HPLC chromatogram.

[2] = Hygroscopicity comparison test (adsorption isotherm curve measurement); type: physicochemical; conditions: 0-95% RH, 25° C.
Procedure: An adsorption isotherm curve measurement was performed under the following conditions.
apparatus: DVS-1 (sms Ltd., UK)
measurement temperature: 25° C.
measurement operation: a sample was measured in a sample cup, sample weight was measured by successively changing the relative humidity at 50→0→95→0→50% RH.
The smaller weight change due to humidity is an important factor for the management of charge amount of the bulk drug for pharmaceutical products.

[3] = physchem; conditions: water, thermodynamic from solid
Procedure: This was subjected to ultrasonication on a water bath for 10 min, and gently shaken in a twin mixer (TM-282, AS ONE Corporation) at room temperature for 1 hr. After shaking, the mixture was centrifuged by a portable ultracentrifuge (10000 rpm×10 min., MC-150, TOMY SEIKO CO., LTD.) and the supernatant was filtered (Millex-LH, Millipore Corporation).

[4] = preserved one month at 40° C. 75% RH

| Molecule | Increase rate of related substances (%) ([1]; preserved one month at 30° C.) | Increase rate of related substances (%) ([1]; preserved one month at 40° C.) | Increase rate of related substances (%) [1, 4] | Increase rate of related substances (%) ([1]; preserved one month at 50° C.) | moisture absorption [2] | moisture absorption, corresponding hydrated water [2] | solubility [3] |
| --- | --- | --- | --- | --- | --- | --- | --- |
| anhydrous (R)-3-[2-(2-hydroxymethylpyrrolidin-1-yl)ethyl]-5-methyl-2H-isoquinolin-1-one monophosphate | −0.01% | −0.01% | −0.02% | −0.01% | 0.5 % (w/w) | 0.1 hydrated water |  |
| Cc1cccc2c(=O)[nH]c(CCN3CCC[C@@H]3CO)cc12 [free form, (R)-3-[2-(2-hydroxymethylpyrrolidin-1-yl)ethyl]-5-methyl-2H-isoquinolin-1-one] | +0.16% | +0.18% | +0.28% | +1.30% |  |  | ≤ 1 mg/mL |
| Cc1cccc2c(=O)[nH]c(CCN3CCC[C@@H]3CO)cc12.Cl.O.O [monohydrochloride dihydrate, (R)-3-[2-(2-hydroxymethylpyrrolidin-1-yl)ethyl]-5-methyl-2H-isoquinolin-1-one monohydrochloride dihydrate] |  |  |  |  | 11 % (w/w) | 2 hydrated water | 45 mg/mL |
